# Literature values in patent publication US8158648B2, “Heteroaryl 11-beta hydroxysteroid dehydrogenase type I inhibitors” (priority 2005, dated 2012).
# System: hepatic glucose production
# Settings: mildly overweight individuals with type 2 diabetes, seven days, versus placebo
compound,measurement,value
CC1(C)[C@@H](OC(=O)CCC(=O)O)CC[C@]2(C)[C@H]3C(=O)C=C4[C@@H]5C[C@@](C)(C(=O)O)CC[C@]5(C)CC[C@@]4(C)[C@]3(C)CC[C@@H]12 [carbenoxolone],hepatic glucose production,decrease in hepatic glucose production
